Reference: patent US9695155B2, “Herbicidal substituted pyrimidinyloxy benzene compounds” (E. I. DU PONT DE NEMOURS AND COMPANY, priority 2013, dated 2017)

Experiments:
bearded sprangletop = experiment: Test G flood (paddy water application); assay type: in vivo, Leptochloa fascicularis; conditions: after 21 days, scale 0 to 100, 0 no effect, 100 complete control
Text: (§1) Three plastic pots (ca. 16-cm diameter) per rate were partially filled with sterilized Tama silt loam soil comprising a 35:50:15 ratio of sand, silt and clay and 2.6% organic matter. Separate plantings for each of the three pots were as follows. Seeds from the U.S. of monochoria (Monochoria vaginalis), sedge, umbrella (small-flower umbrella sedge, Cyperus difformis), hardstem bulrush (Scirpus juncoides), and redstem (purple redstem, Ammannia coccinea), were planted into one 16-cm pot for each rate. Seeds from the U.S. of rice flatsedge (Cyperus iria), bearded sprangletop (Leptochloa fascicularis), one stand of 9 or 10 water seeded rice seedlings (Oryza sativa cv. ‘Japonica—M202’), and two stands of 3 or 4 transplanted rice seedlings (Oryza sativa cv. ‘Japonica—M202’) were planted into one 16-cm pot for each rate. Seeds from the U.S. of barnyardgrass (Echinochloa crus-galli), and late watergrass (Echinochloa oryzicola) were planted into one 16-cm pot for each rate. Plantings were sequential so that crop and weed species were at the 2.0 to 2.5-leaf stage at time of treatment.
(§2) Potted plants were grown in a greenhouse with day/night temperature settings of 30/27° C., and supplemental balanced lighting was provided to maintain a 16-hour photoperiod. Test pots were maintained in the greenhouse until test completion.
(§3) At time of treatment, test pots were flooded to 3 cm above the soil surface, treated by application of test compounds directly to the paddy water, and then maintained at that water depth for the duration of the test. Effects of treatments on rice and weeds were visually evaluated by comparison to untreated controls after 21 days. Plant response ratings, summarized in Table G, are based on a scale of 0 to 100 where 0 is no effect and 100 is complete control. A dash (-) response means no test result.

rice flatsedge = experiment: Test G flood (paddy water application); assay type: in vivo, Cyperus iria; conditions: after 21 days, scale 0 to 100, 0 no effect, 100 complete control
Text: as §1, §2, §3

redstem = experiment: Test G flood (paddy water application); assay type: in vivo, Ammannia coccinea; conditions: after 21 days, scale 0 to 100, 0 no effect, 100 complete control
Text: as §1, §2, §3

[1] = system: water seeded rice seedlings; experiment: Test G flood (paddy water application); assay type: in vivo, Oryza sativa cv. ‘Japonica—M202’; conditions: after 21 days, scale 0 to 100, 0 no effect, 100 complete control
Text: as §1, §2, §3

[2] = system: transplanted rice seedlings; experiment: Test G flood (paddy water application); assay type: in vivo, Oryza sativa cv. ‘Japonica—M202’; conditions: after 21 days, scale 0 to 100, 0 no effect, 100 complete control
Text: as §1, §2, §3

late watergrass = experiment: Test G flood (paddy water application); assay type: in vivo, Echinochloa oryzicola; conditions: after 21 days, scale 0 to 100, 0 no effect, 100 complete control
Text: as §1, §2, §3

dallisgrass = experiment: Test F preemergence; assay type: in vivo, Paspalum dilatatum; conditions: 21 days, scale 0 to 100
Text: (§4) Seeds of plant species selected from bermudagrass (Cynodon dactylon), surinam grass (Brachiaria decumbens), large (Lg) crabgrass (Digitaria sanguinalis), crabgrass, naked (naked crabgrass, Digitaria nuda), foxtail, green (green foxtail, Setaria viridis), johnsongrass (Sorghum halepense), kochia (Kochia scoparia), morningglory (pitted morningglory, Ipomoea lacunosa), nutsedge, purple (purple nutsedge, Cyperus rotundus), ragweed (common ragweed, Ambrosia elatior), mustard, black (black mustard, Brassica nigra), guineagrass (Panicum maximum), dallisgrass (Paspalum dilatatum), barnyardgrass (Echinochloa crus-galli), sandbur (southern sandbur, Cenchrus echinatus), sowthistle (common sowthistle, Sonchus oleraceous), Italian ryegrass (Lolium multiflorum), signalgrass (broadleaf signalgrass, Brachiaria platyphylla), dayflower (Virginia (VA) dayflower, Commelina virginica), bluegrass (annual bluegrass, Poa annua), quackgrass (Elytrigia repens), mallow (common mallow, Malva sylvestris), buckwheat, wild (wild buckwheat, Polygonum convolvulus), leafy spurge (Euphorbia esula), chickweed (common chickweed, Stellaria media), wild poinsettia (Euphorbia heterophylla), and pigweed (Amaranthus retroflexus) were planted into a blend of loam soil and sand and treated preemergence with test chemicals formulated in a non-phytotoxic solvent mixture which included a surfactant.
(§5) Treated plants and controls were maintained in a greenhouse for 21 days, after which time all species were compared to controls and visually evaluated. Plant response ratings, summarized in Table F, are based on a scale of 0 to 100 where 0 is no effect and 100 is complete control. A dash (-) response means no test result.

surinam grass = experiment: Test F preemergence; assay type: in vivo, Brachiaria decumbens; conditions: 21 days, scale 0 to 100
Text: as §4, §5

smartweed = experiment: Test E preemergence; assay type: in vivo, ladysthumb smartweed; conditions: for Smartweed plant response rating: scale 0 to 100 (0 no effect, 100 complete control); for Plant response rating, Smartweed: scale 0 to 100, 0 no effect, 100 complete control
Text: Seeds of plant species selected from corn (Zea mays), soybean (Glycine max), velvetleaf (Abutilon theophrasti), lambsquarters (Chenopodium album), wild poinsettia (Euphorbia heterophylla), palmer pigweed (Amaranthus palmeri), waterhemp (common waterhemp, Amaranthus rudis), surinam grass (Brachiaria decumbens), large (Lg) crabgrass (Digitaria sanguinalis), Brazilian crabgrass (Digitaria horizontalis), fall panicum (Panicum dichotomiflorum), giant foxtail (Setaria faberii), green foxtail (Setaria viridis), goosegrass (Eleusine indica), johnsongrass (Sorghum halepense), ragweed (common ragweed, Ambrosia elatior), barnyardgrass (Echinochloa crus-galli), sandbur (southern sandbur, Cenchrus echinatus), arrowleaf sida (Sida rhombifolia), Italian ryegrass (Lolium multiflorum), dayflower (Virginia (VA) dayflower, Commelina virginica), field bindweed (Convolvulus arvensis), morningglory (Ipomoea coccinea), nightshade (eastern black nightshade, Solanum ptycanthum), kochia (Kochia scoparia), yellow nutsedge (Cyperus esculentus), cocklebur (common cocklebur, Xanthium strumarium), smartweed (ladysthumb smartweed, and hairy beggarticks (Bidens pilosa), were planted into a silt loam soil and treated preemergence with test chemicals formulated in a non-phytotoxic solvent mixture which included a surfactant.
At the same time, plants from these crop and weed species and also horseweed (Canada horseweed, Conyza canadensis), waterhemp_RES1, (ALS & Triazine resistant common waterhemp, Amaranthus rudis), and waterhemp_RES2, (ALS & HPPD resistant common waterhemp, Amaranthus rudis) were planted in pots containing Redi-Earth® planting medium (Scotts Company, 14111 Scottslawn Road, Marysville, Ohio 43041) comprising spaghnum peat moss, vermiculite, wetting agent and starter nutrients were treated with postemergence applications of test chemicals formulated in the same manner. Plants ranged in height from 2 to 18 cm for postemergence treatments (1- to 4-leaf stage). Treated plants and controls were maintained in a greenhouse for 14 to 21 days, after which time all species were compared to controls and visually evaluated. Plant response ratings, summarized in Table E, are based on a scale of 0 to 100 where 0 is no effect and 100 is complete control. A dash (-) response means no test result.

| Compound | Plant response rating, Sprangletop, Brdd. (bearded sprangletop; 32 g ai/ha) | Plant response rating, Sprangletop, Brdd. (bearded sprangletop; 64 g ai/ha) | Plant response rating, Sprangletop, Brdd. (bearded sprangletop; 125 g ai/ha) | Plant response rating, Sprangletop, Brdd. (bearded sprangletop; 250 g ai/ha) | Plant response rating, Flatsedge, Rice (rice flatsedge; 32 g ai/ha) | Plant response rating, Flatsedge, Rice (rice flatsedge; 64 g ai/ha) | Plant response rating, Flatsedge, Rice (rice flatsedge; 125 g ai/ha) | Plant response rating, Flatsedge, Rice (rice flatsedge; 250 g ai/ha) | Plant response rating, Redstem (redstem; 32 g ai/ha) | Plant response rating, Redstem (redstem; 64 g ai/ha) | Plant response rating, Redstem (redstem; 125 g ai/ha) | Plant response rating, Redstem (redstem; 250 g ai/ha) | Plant response rating, Rice, Water Seeded ([1]; 64 g ai/ha) | Plant response rating, Rice, Water Seeded ([1]; 125 g ai/ha) | Plant response rating, Rice, Water Seeded ([1]; 250 g ai/ha) | Plant response rating, Watergrass, Late (late watergrass; 32 g ai/ha) | Plant response rating, Watergrass, Late (late watergrass; 64 g ai/ha) | Plant response rating, Watergrass, Late (late watergrass; 125 g ai/ha) | Plant response rating, Watergrass, Late (late watergrass; 250 g ai/ha) | Smartweed plant response rating (smartweed; 31 g ai/ha) | also measured |
| --- | --- | --- | --- | --- | --- | --- | --- | --- | --- | --- | --- | --- | --- | --- | --- | --- | --- | --- | --- | --- | --- |
| FC(F)(F)c1cnn(-c2ccccc2Oc2ncc(Cl)cn2)c1 [Compound 16] | 65 | 100 | 100 | 100 | 40 | 85 | 100 | 100 | 0 | 60 | 85 | 95 | 90 | 100 | 100 | 0 | 0 | 0 | 80 | – | Plant response rating, Rice, Water Seeded ([1]; 32 g ai/ha): 50; Plant response rating, Rice, Transplanted ([2]; 32 g ai/ha): 0 |
| FC(F)(F)c1cnn(-c2ccccc2Oc2ncc(Br)cn2)c1 [Compound 18, 5-bromo-2-[2-[4-(trifluoromethyl)-1H-pyrazol-1-yl]phenoxy]pyrimidine] | 70 | 80 | 90 | 100 | 30 | 75 | 100 | 100 | 0 | 0 | 75 | 90 | 60 | 90 | 100 | 0 | 0 | 0 | 70 | – | Plant response rating, Rice, Transplanted ([2]; 125 g ai/ha): 15; Plant response rating, Rice, Transplanted ([2]; 250 g ai/ha): 20 |
| N#Cc1cccc(Oc2ncc(Cl)cn2)c1-n1cc(C(F)(F)F)cn1 [Compound 58, 3-[(5-chloro-2-pyrimidinyl)oxy]-2-[4-(trifluoromethyl)-1H-pyrazol-1-yl]benzonitrile] | – | – | – | – | – | – | – | – | – | – | – | – | – | – | – | – | – | – | – | – | Plant response rating, Dallisgrass (dallisgrass; 16 g ai/ha): 90; Plant response rating, Dallisgrass (dallisgrass; 31 g ai/ha): 100; Plant response rating, Dallisgrass (dallisgrass; 62 g ai/ha): 100; Plant response rating, Dallisgrass (dallisgrass; 125 g ai/ha): 100; Plant response rating, Dallisgrass (dallisgrass; 250 g ai/ha): 100; Plant response rating, Surinam Grass (surinam grass; 16 g ai/ha): 25; Plant response rating, Surinam Grass (surinam grass; 31 g ai/ha): 60; Plant response rating, Surinam Grass (surinam grass; 62 g ai/ha): 98; Plant response rating, Surinam Grass (surinam grass; 125 g ai/ha): 100; Plant response rating, Surinam Grass (surinam grass; 250 g ai/ha): 100 |
| N#Cc1cccc(Oc2ncc(F)cn2)c1-n1cc(Cl)cn1 [Compound 73] | – | – | – | – | – | – | – | – | – | – | – | – | – | – | – | – | – | – | – | 0 | Smartweed plant response rating (smartweed; 16 g ai/ha): 0; Smartweed plant response rating (smartweed; 62 g ai/ha): 20; Plant response rating, Smartweed (smartweed; 125 g ai/ha): 98; Plant response rating, Smartweed (smartweed; 250 g ai/ha): 98 |
| FC(F)c1cccc(Oc2ncc(Cl)cn2)c1-n1cc(Br)cn1 [Compound 194, 2-[2-(4-bromo-1H-pyrazol-1-yl)-3-(difluoromethyl)phenoxy]-5-chloropyrimidine] | – | – | – | – | – | – | – | – | – | – | – | – | – | – | – | – | – | – | – | 0 | Smartweed plant response rating (smartweed; 62 g ai/ha): 90 |
